Measurements from patent US20250163104A1, “MACROCYCLIC IMMUNOMODULATORS” (priority 2021, published 2025).
Where a SMILES comes first, the peptide text is derived from it. Bridges are numbered along the chain shown (N, C = ends). [ ]: non-standard residue; d: D form. The star is where a group is joined. Bip = N[C@@H](Cc1ccc(-c2ccccc2)cc1)C(=O)O; Phe(3-Me) = Cc1cccc(C[C@H](N)C(=O)O)c1; Cha = N[C@@H](CC1CCCCC1)C(=O)O; Carboxymethyl = O=C(O)C*; Orn = NCCC[C@H](N)C(=O)O; Dab = NCC[C@H](N)C(=O)O; Dap = NC[C@H](N)C(=O)O

Biological target: T1, human PD-1 / PD-L1-Ig binding on Jurkat cell line over-expressing human PD-1 (Jurkat-PD-1) (Homo sapiens, UniProt Q15116)
T1 construct: expressed in transfected cells; host or cells: Jurkat
T1 sequence (Q15116 25-288): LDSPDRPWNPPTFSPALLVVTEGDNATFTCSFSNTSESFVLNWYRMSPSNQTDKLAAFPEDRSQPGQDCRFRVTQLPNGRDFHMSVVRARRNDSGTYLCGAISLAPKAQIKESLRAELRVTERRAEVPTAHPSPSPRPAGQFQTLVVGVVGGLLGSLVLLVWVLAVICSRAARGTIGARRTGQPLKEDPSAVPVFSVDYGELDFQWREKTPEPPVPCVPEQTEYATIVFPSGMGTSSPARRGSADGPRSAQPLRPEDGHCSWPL
Assay: Jurkat-PD-1 Cell Binding High-Content Screening Assay (CBA)
Format: cell-based
Settings: Jurkat-PD-1 cells, PE-labeled PD-L1-Ig 20 nM final; read-out: Jurkat HPD1_PDL1 IC50
How it was run: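 Binding of fluorescent PD-L1-Ig (phycoerythrin linked via the Ig tag, 20 nM final) to PD-1-overexpressing Jurkat cells was imaged after a 2 h, 37° C compound pretreatment and 1 hour ligand incubation.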

| SMILES | IC50 |
| --- | --- |
| Cc1cccc(C[C@@H]2NC(=O)[C@H](CC(=O)O)NC(=O)[C@H](Cc3ccc(OCC(=O)O)cc3)NC(=O)[C@H](CN)NC(=O)CSC[C@@H](C(N)=O)NC(=O)[C@H]([C@@H](C)O)NC(=O)[C@H](C(C)C)NC(=O)[C@H](CC3CCCCC3)NC(=O)[C@H](CCC(=O)O)NC(=O)[C@@H](CC(C)C)NC(=O)[C@H](CCCN)NC(=O)[C@H](Cc3ccc(OCC(=O)O)cc3)NC(=O)[C@H](Cc3ccc(-c4ccccc4)cc3)NC(=O)[C@H](Cc3ccc(OCC(=O)O)cc3)NC2=O)c1 [Compound 1775] ({CH2CO}-[Dap]Y(Carboxymethyl)D[Phe(3-Me)]Y(Carboxymethyl)[Bip]Y(Carboxymethyl)[Orn][dL]E[Cha]VTC-NH2; thioether N-14) | 20.5 nM |
| Cc1cccc(C[C@@H]2NC(=O)[C@H](CC(=O)O)NC(=O)[C@H](Cc3ccc(OCC(=O)O)cc3)NC(=O)[C@H](CN)NC(=O)CSC[C@@H](C(N)=O)NC(=O)[C@H](CCCN)NC(=O)[C@H](C(C)C)NC(=O)[C@H](CC3CCCCC3)NC(=O)[C@H](CCN)NC(=O)[C@@H](CC(C)C)NC(=O)[C@H](CCCN)NC(=O)[C@H](Cc3ccc(OCC(=O)O)cc3)NC(=O)[C@H](Cc3ccc(-c4ccccc4)cc3)NC(=O)[C@H](Cc3ccc(OCC(=O)O)cc3)NC2=O)c1 [Compound 1779] ({CH2CO}-[Dap]Y(Carboxymethyl)D[Phe(3-Me)]Y(Carboxymethyl)[Bip]Y(Carboxymethyl)[Orn][dL][Dab][Cha]V[Orn]C-NH2; thioether N-14) | 16.6 nM |
| Cc1cccc(C[C@@H]2NC(=O)[C@H](CC(=O)O)NC(=O)[C@H](Cc3ccc(OCC(=O)O)cc3)NC(=O)[C@H](CN)NC(=O)CSC[C@@H](C(N)=O)NC(=O)[C@H](CC(N)=O)NC(=O)[C@H](C(C)C)NC(=O)[C@H](CC3CCCCC3)NC(=O)[C@H](CCN)NC(=O)[C@@H](CC(C)C)NC(=O)[C@H](CCCN)NC(=O)[C@H](Cc3ccc(OCC(=O)O)cc3)NC(=O)[C@H](Cc3ccc(-c4ccccc4)cc3)NC(=O)[C@H](Cc3ccc(OCC(=O)O)cc3)NC2=O)c1 [Compound 1780] ({CH2CO}-[Dap]Y(Carboxymethyl)D[Phe(3-Me)]Y(Carboxymethyl)[Bip]Y(Carboxymethyl)[Orn][dL][Dab][Cha]VNC-NH2; thioether N-14) | 11.3 nM |
| Cc1cccc(C[C@@H]2NC(=O)[C@H](CC(=O)O)NC(=O)[C@H](Cc3ccc(OCC(=O)O)cc3)NC(=O)[C@H](CN)NC(=O)CSC[C@@H](C(N)=O)NC(=O)[C@H](CC(=O)O)NC(=O)[C@H](C(C)C)NC(=O)[C@H](CC3CCCCC3)NC(=O)[C@H](CCN)NC(=O)[C@@H](CC(C)C)NC(=O)[C@H](CCCN)NC(=O)[C@H](Cc3ccc(OCC(=O)O)cc3)NC(=O)[C@H](Cc3ccc(-c4ccccc4)cc3)NC(=O)[C@H](Cc3ccc(OCC(=O)O)cc3)NC2=O)c1 [Compound 1781] ({CH2CO}-[Dap]Y(Carboxymethyl)D[Phe(3-Me)]Y(Carboxymethyl)[Bip]Y(Carboxymethyl)[Orn][dL][Dab][Cha]VDC-NH2; thioether N-14) | 14.2 nM |
| Cc1cccc(C[C@@H]2NC(=O)[C@H](CC(=O)O)NC(=O)[C@H](Cc3ccc(OCC(=O)O)cc3)NC(=O)[C@H](CN)NC(=O)CSC[C@@H](C(N)=O)NC(=O)[C@H](CCC(N)=O)NC(=O)[C@H](C(C)C)NC(=O)[C@H](CC3CCCCC3)NC(=O)[C@H](CCN)NC(=O)[C@@H](CC(C)C)NC(=O)[C@H](CCCN)NC(=O)[C@H](Cc3ccc(OCC(=O)O)cc3)NC(=O)[C@H](Cc3ccc(-c4ccccc4)cc3)NC(=O)[C@H](Cc3ccc(OCC(=O)O)cc3)NC2=O)c1 [Compound 1782] ({CH2CO}-[Dap]Y(Carboxymethyl)D[Phe(3-Me)]Y(Carboxymethyl)[Bip]Y(Carboxymethyl)[Orn][dL][Dab][Cha]VQC-NH2; thioether N-14) | 23.6 nM |
